Assay results taken from PubChem BioAssay (NCI).
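In this assay, cells in 96-well plates receive the compound at five concentrations for 48 hours. Endpoints are linearly interpolated between the surrounding concentrations. The concentration for 50% growth inhibition is given as GI50. TGI marks complete inhibition of growth.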

Experiments:
Experiment in all cases: growth of human tumour cells (NCI), 48 h; in the data active = GI50 below about 0.43 µM; inactive = the rest
KM12 colon = system: KM12 colon
MCF7 breast = system: MCF7 breast
OVCAR-8 ovarian = system: OVCAR-8 ovarian
MDA-MB-231 breast = system: MDA-MB-231 breast
SF-295 CNS = system: SF-295 CNS
HCC-2998 colon = system: HCC-2998 colon
K-562 leukemia = system: K-562 leukemia
786-0 renal = system: 786-0 renal
LOX IMVI melanoma = system: LOX IMVI melanoma
HOP-62 NSCLC = system: HOP-62 NSCLC
UACC-62 melanoma = system: UACC-62 melanoma
SK-MEL-5 melanoma = system: SK-MEL-5 melanoma
UO-31 renal = system: UO-31 renal
SK-MEL-28 melanoma = system: SK-MEL-28 melanoma
U251 CNS = system: U251 CNS
UACC-257 melanoma = system: UACC-257 melanoma
T-47D breast = system: T-47D breast
NCI/ADR-RES ovarian = system: NCI/ADR-RES ovarian
MOLT-4 leukemia = system: MOLT-4 leukemia
A498 renal = system: A498 renal
MDA-MB-435 = system: MDA-MB-435
PC-3 prostate = system: PC-3 prostate
SF-539 CNS = system: SF-539 CNS
ACHN renal = system: ACHN renal
RPMI-8226 leukemia = system: RPMI-8226 leukemia
OVCAR-4 ovarian = system: OVCAR-4 ovarian
SNB-19 CNS = system: SNB-19 CNS
BT-549 breast = system: BT-549 breast
OVCAR-5 ovarian = system: OVCAR-5 ovarian
OVCAR-3 ovarian = system: OVCAR-3 ovarian
HL-60(TB) leukemia = system: HL-60(TB) leukemia
HOP-92 NSCLC = system: HOP-92 NSCLC
NCI-H226 lung = system: NCI-H226 lung
NCI-H522 lung = system: NCI-H522 lung
HCT-116 colon = system: HCT-116 colon
IGROV1 ovarian = system: IGROV1 ovarian
A549 NSCLC = system: A549 NSCLC
DU-145 prostate = system: DU-145 prostate
HT29 colon = system: HT29 colon
SW-620 colon = system: SW-620 colon
HCT-15 colon = system: HCT-15 colon
SN12C renal = system: SN12C renal
M14 melanoma = system: M14 melanoma
NCI-H460 lung = system: NCI-H460 lung
CCRF-CEM leukemia = system: CCRF-CEM leukemia
TK-10 renal = system: TK-10 renal
SF-268 CNS = system: SF-268 CNS
RXF 393 renal = system: RXF 393 renal
SK-OV-3 ovarian = system: SK-OV-3 ovarian
EKVX NSCLC = system: EKVX NSCLC
SNB-75 CNS = system: SNB-75 CNS
SR leukemia = system: SR leukemia
NCI-H23 lung = system: NCI-H23 lung
HS 578T breast = system: HS 578T breast
COLO 205 colon = system: COLO 205 colon

O=C(CNC(=O)c1cccc2ccccc12)Nc1ccccc1Oc1ccc(O)cc1
active: GI50 (MDA-MB-435) 161 nM
1720 nM: TGI (RXF 393 renal)
10.4 µM: TGI (RPMI-8226 leukemia)
inactive: GI50 (KM12 colon) 919 nM | GI50 (MCF7 breast) 847 nM | GI50 (OVCAR-8 ovarian) 1310 nM | GI50 (MDA-MB-231 breast) 3.18 µM | GI50 (SF-295 CNS) 620 nM | GI50 (HCC-2998 colon) 8.98 µM | GI50 (K-562 leukemia) 497 nM | GI50 (786-0 renal) 1040 nM | GI50 (LOX IMVI melanoma) 1720 nM | GI50 (HOP-62 NSCLC) 1350 nM | GI50 (UACC-62 melanoma) 1170 nM | GI50 (SK-MEL-5 melanoma) 846 nM | GI50 (UO-31 renal) 1780 nM | GI50 (SK-MEL-28 melanoma) > 25 µM | GI50 (U251 CNS) 1410 nM | GI50 (UACC-257 melanoma) > 25 µM | GI50 (T-47D breast) 1540 nM | GI50 (NCI/ADR-RES ovarian) 1190 nM | GI50 (MOLT-4 leukemia) 1210 nM | GI50 (A498 renal) 1010 nM | GI50 (PC-3 prostate) 1310 nM | GI50 (SF-539 CNS) 688 nM | GI50 (ACHN renal) 1860 nM | GI50 (RPMI-8226 leukemia) 970 nM | GI50 (OVCAR-4 ovarian) 2800 nM | GI50 (SNB-19 CNS) 1420 nM | GI50 (BT-549 breast) 1630 nM | GI50 (OVCAR-5 ovarian) 6.3 µM | GI50 (OVCAR-3 ovarian) 744 nM | GI50 (HL-60(TB) leukemia) 705 nM | GI50 (HOP-92 NSCLC) > 25 µM | GI50 (NCI-H226 lung) 4.74 µM | GI50 (NCI-H522 lung) 852 nM | GI50 (HCT-116 colon) 978 nM | GI50 (IGROV1 ovarian) 2330 nM | GI50 (A549 NSCLC) 1490 nM | GI50 (DU-145 prostate) 1150 nM | GI50 (HT29 colon) 992 nM | GI50 (SW-620 colon) 911 nM | GI50 (HCT-15 colon) 909 nM | GI50 (SN12C renal) 2190 nM | GI50 (M14 melanoma) 698 nM | GI50 (NCI-H460 lung) 969 nM | GI50 (CCRF-CEM leukemia) 940 nM | GI50 (TK-10 renal) 16.9 µM | GI50 (SF-268 CNS) 3.31 µM | GI50 (RXF 393 renal) 500 nM | GI50 (SK-OV-3 ovarian) 1590 nM | GI50 (EKVX NSCLC) 1170 nM | GI50 (SNB-75 CNS) 591 nM | GI50 (SR leukemia) 459 nM | GI50 (NCI-H23 lung) 2160 nM | GI50 (HS 578T breast) 1340 nM | GI50 (COLO 205 colon) 796 nM
687 nM: TGI (MDA-MB-435)
2060 nM: TGI (HL-60(TB) leukemia)
> 25 µM: TGI (KM12 colon) | TGI (MCF7 breast) | TGI (OVCAR-8 ovarian) | TGI (MDA-MB-231 breast) | TGI (SF-295 CNS) | TGI (HCC-2998 colon) | TGI (K-562 leukemia) | TGI (786-0 renal) | TGI (LOX IMVI melanoma) | TGI (HOP-62 NSCLC) | TGI (UACC-62 melanoma) | TGI (SK-MEL-5 melanoma) | TGI (UO-31 renal) | TGI (SK-MEL-28 melanoma) | TGI (U251 CNS) | TGI (UACC-257 melanoma) | TGI (T-47D breast) | TGI (NCI/ADR-RES ovarian) | TGI (MOLT-4 leukemia) | TGI (PC-3 prostate) | TGI (ACHN renal) | TGI (OVCAR-4 ovarian) | TGI (SNB-19 CNS) | TGI (BT-549 breast) | TGI (OVCAR-5 ovarian) | TGI (OVCAR-3 ovarian) | TGI (HOP-92 NSCLC) | TGI (NCI-H226 lung) | TGI (NCI-H522 lung) | TGI (HCT-116 colon) | TGI (IGROV1 ovarian) | TGI (A549 NSCLC) | TGI (DU-145 prostate) | TGI (HT29 colon) | TGI (SW-620 colon) | TGI (HCT-15 colon) | TGI (SN12C renal) | TGI (M14 melanoma) | TGI (NCI-H460 lung) | TGI (CCRF-CEM leukemia) | TGI (TK-10 renal) | TGI (SF-268 CNS) | TGI (SK-OV-3 ovarian) | TGI (EKVX NSCLC) | TGI (SNB-75 CNS) | TGI (SR leukemia) | TGI (NCI-H23 lung) | TGI (HS 578T breast)
3.56 µM: TGI (COLO 205 colon)
2450 nM: TGI (SF-539 CNS)
9.97 µM: TGI (A498 renal)
